In patent publication US20260200897A1, “4-((5-(3-(4-(PYRIDIN-2-YL)CYCLOPENTYL)-1H-PYRAZOL-3-YL)AMINO)-BENZENESULFONAMIDE DERIVATIVES AND SIMILAR COMPOUNDS AS CDK INHIBITORS FOR THE TREATMENT OF CANCER” (BeOne Medicines I GmbH, priority 2023, published 2026):

What was measured:
CDK2/Cyclin E1 = CDK2/Cyclin E1 (Homo sapiens, UniProt P24941); test: CDK2/Cyclin E1 TR-FRET biochemical assay, 0.060 mM ATP; settings: 0.15 μM Rb (Ser780)-biotin substrate, 120 min reaction, Table 1
Method: (§1) Compounds disclosed herein were tested for inhibition of CDK2/Cyclin E1 or CDK1/Cyclin B1 kinase in an assay based on the time-resolved fluorescence-resonance energy transfer (TR-FRET) methodology. The assay was carried out in 384-well low volume black plates in a reaction mixture containing CDK2/Cyclin E1 or CDK1/Cyclin B1, 0.060 mM ATP for CDK2/Cyclin E1 or 0.015 mM ATP for CDK1/Cyclin B1, 0.15 μM Rb (Ser780)-biotin substrate and 0-10 μM compound in buffer containing 50 mM HEPES pH7.0, 0.02% NaN3, 0.01% BSA, 0.1 mM Orthovanadate, 50 mM MgCl2, 1 mM DTT and 0.005% Tween-20. The kinase was incubated with compound for 60 minutes at room temperature and the reaction was initiated by the addition of ATP and Rb (Ser780)-biotin substrate. After reaction at room temperature for 120 minutes, an equal volume of stop/detection solution was added according to the manufacture's instruction (Cisbio Bioassays). The stop/detection solution contained Streptavidin-XL665 and Anti-pRb (Ser780) mAb-Eu Cryptate in Detection buffer (Cisbio Bioassays). Plates were incubated at room temperature for 60 minutes, and the TR-FRET signals (ex337 nm, em665 nm/620 nm) were recorded on a PHERAstar FSX plate reader (BMG Labtech). The inhibition percentage of CDK2/Cyclin E1 or CDK1/Cyclin B1 kinase activity in presence of increasing concentrations of compounds was calculated based on the ratio of fluorescence at 665 nm to that at 620 nm. The IC50 for each compound was derived from fitting the data to the four-parameter logistic equation by Dotmatics.

CDK1/Cyclin B1 = CDK1/Cyclin B1 (Homo sapiens, UniProt P06493); test: CDK1/Cyclin B1 TR-FRET biochemical assay, 0.015 mM ATP; settings: 0.15 μM Rb (Ser780)-biotin substrate, 120 min reaction, Table 1
CDK1/Cyclin B1, sequence (P06493 whole entry): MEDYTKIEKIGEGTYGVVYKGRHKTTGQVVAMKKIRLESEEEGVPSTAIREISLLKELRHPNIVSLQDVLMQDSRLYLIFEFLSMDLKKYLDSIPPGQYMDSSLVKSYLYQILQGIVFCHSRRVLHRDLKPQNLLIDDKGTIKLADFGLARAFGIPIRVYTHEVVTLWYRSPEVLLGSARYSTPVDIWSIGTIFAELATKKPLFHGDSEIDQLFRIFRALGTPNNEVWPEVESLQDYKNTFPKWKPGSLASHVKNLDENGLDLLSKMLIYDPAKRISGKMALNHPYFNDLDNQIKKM
CDK1/Cyclin B1, sequence (P14635 whole entry partner): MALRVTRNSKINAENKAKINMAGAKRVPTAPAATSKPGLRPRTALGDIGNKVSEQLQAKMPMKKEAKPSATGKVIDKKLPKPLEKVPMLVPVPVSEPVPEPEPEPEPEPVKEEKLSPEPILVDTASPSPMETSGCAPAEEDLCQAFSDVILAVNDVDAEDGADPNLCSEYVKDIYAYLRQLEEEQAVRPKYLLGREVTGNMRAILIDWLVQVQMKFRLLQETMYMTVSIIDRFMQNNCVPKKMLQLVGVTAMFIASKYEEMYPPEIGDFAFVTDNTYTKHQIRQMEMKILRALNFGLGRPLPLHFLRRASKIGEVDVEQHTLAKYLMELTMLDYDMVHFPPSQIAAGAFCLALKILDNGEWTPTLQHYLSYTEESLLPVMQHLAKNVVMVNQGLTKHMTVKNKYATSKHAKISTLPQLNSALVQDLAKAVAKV
Method: as §1

Compound	IC50 (CDK2/Cyclin E1) [µM]	IC50 (CDK1/Cyclin B1) [µM]
Cn1ccc(O[C@@H]2CC[C@H](c3cc(Nc4ccc5c(c4F)CNS5(=O)=O)n[nH]3)C2)n1 (relative stereo) [Example 64, cis-4-fluoro-5-((5-(3-((1-methyl-1H-pyrazol-3-yl)oxy)cyclopentyl)-1H-pyrazol-3-yl)amino)-2,3-dihydrobenzo[d]isothiazole 1,1-dioxide]	0.296	1.9
Cc1cc(O[C@@H]2CC[C@H](c3cc(Nc4ccc5c(c4F)CNS5(=O)=O)n[nH]3)C2)[nH]n1 (relative stereo) [Example 65, cis-4-fluoro-5-((5-(3-((3-methyl-1H-pyrazol-5-yl)oxy)cyclopentyl)-1H-pyrazol-3-yl)amino)-2,3-dihydrobenzo[d]isothiazole 1,1-dioxide]	0.07	1.36
Cc1cc(O[C@@H]2CC[C@H](c3cc(Nc4ccc5c(c4F)CNS5(=O)=O)n[nH]3)C2)n(-c2ccccc2)n1 (relative stereo) [Example 66, cis-4-fluoro-5-((5-(3-((3-methyl-1-phenyl-1H-pyrazol-5-yl)oxy)cyclopentyl)-1H-pyrazol-3-yl)amino)-2,3-dihydrobenzo[d]isothiazole 1,1-dioxide]	2.53	> 10
O=S1(=O)NCc2c1ccc(Nc1cc([C@H]3CC[C@@H](Oc4n[nH]c5ccccc45)C3)[nH]n1)c2F (relative stereo) [Example 67, cis-5-((5-(3-((1H-indazol-3-yl)oxy)cyclopentyl)-1H-pyrazol-3-yl)amino)-4-fluoro-2,3-dihydrobenzo[d]isothiazole 1,1-dioxide]	0.054	2.15
CCOC(=O)c1cn[nH]c1O[C@H]1CC[C@@H](c2cc(Nc3ccc4c(c3F)CNS4(=O)=O)n[nH]2)C1 (relative stereo) [Example 68, cis-ethyl 5-((3-(3-((4-fluoro-1,1-dioxido-2,3-dihydrobenzo[d]isothiazol-5-yl)amino)-1H-pyrazol-5-yl)cyclopentyl)oxy)-1H-pyrazole-4-carboxylate]	0.012	0.198
O=S1(=O)NCc2c1ccc(Nc1cc([C@H]3CC[C@@H](Oc4cc(C(F)(F)F)n[nH]4)C3)[nH]n1)c2F (relative stereo) [Example 69, cis-4-fluoro-5-((5-(3-((3-(trifluoromethyl)-1H-pyrazol-5-yl)oxy)cyclopentyl)-1H-pyrazol-3-yl)amino)-2,3-dihydrobenzo[d]isothiazole 1,1-dioxide]	0.829	> 10
O=S1(=O)NCc2c1ccc(Nc1cc([C@H]3CC[C@@H](Oc4ccnn4-c4ccccc4)C3)[nH]n1)c2F (relative stereo) [Example 70, (cis)-4-fluoro-5-((5-(3-((1-phenyl-1H-pyrazol-5-yl)oxy)cyclopentyl)-1H-pyrazol-3-yl)amino)-2,3-dihydrobenzo[d]isothiazole 1,1-dioxide]	> 10	> 10
CC(C)(C)c1cc(O[C@@H]2CC[C@H](c3cc(Nc4ccc5c(c4F)CNS5(=O)=O)n[nH]3)C2)[nH]n1 (relative stereo) [Example 71, cis-5-((5-(3-((3-(tert-butyl)-1H-pyrazol-5-yl)oxy)cyclopentyl)-1H-pyrazol-3-yl)amino)-4-fluoro-2,3-dihydrobenzo[d]isothiazole 1,1-dioxide]	0.391	7.81
CC(C)c1n[nH]cc1O[C@@H]1CC[C@H](c2cc(Nc3ccc4c(c3F)CNS4(=O)=O)n[nH]2)C1 (relative stereo) [Example 73, cis-4-fluoro-5-((5-(3-((3-isopropyl-1H-pyrazol-4-yl)oxy)cyclopentyl)-1H-pyrazol-3-yl)amino)-2,3-dihydrobenzo[d]isothiazole 1,1-dioxide]	0.012	0.445
Cc1n[nH]c(C)c1O[C@@H]1CC[C@H](c2cc(Nc3ccc4c(c3F)CNS4(=O)=O)n[nH]2)C1 (relative stereo) [Example 75, cis-5-((5-(3-((3,5-dimethyl-1H-pyrazol-4-yl)oxy)cyclopentyl)-1H-pyrazol-3-yl)amino)-4-fluoro-2,3-dihydrobenzo[d]isothiazole 1,1-dioxide]	0.053	1.07

Next, values leading:

IC50 (CDK2/Cyclin E1) [µM]	IC50 (CDK1/Cyclin B1) [µM]	Compound
0.053	1.61	O=S1(=O)NCc2c1ccc(Nc1cc([C@H]3CC[C@@H](Oc4cn[nH]c4)C3)[nH]n1)c2F (relative stereo) [Example 76, cis-5-((5-(3-((1H-pyrazol-4-yl)oxy)cyclopentyl)-1H-pyrazol-3-yl)amino)-4-fluoro-2,3-dihydrobenzo[d]isothiazole 1,1-dioxide]
0.53	> 10	Cn1cc(O[C@@H]2CC[C@H](c3cc(Nc4ccc5c(c4F)CNS5(=O)=O)n[nH]3)C2)cn1 (relative stereo) [Example 77, cis-4-fluoro-5-((5-(3-((1-methyl-1H-pyrazol-4-yl)oxy)cyclopentyl)-1H-pyrazol-3-yl)amino)-2,3-dihydrobenzo[d]isothiazole 1,1-dioxide]
0.306	> 10	CC(C)n1cc(O[C@@H]2CC[C@H](c3cc(Nc4ccc5c(c4F)CNS5(=O)=O)n[nH]3)C2)cn1 (relative stereo) [Example 78, cis-4-fluoro-5-((5-(3-((1-isopropyl-1H-pyrazol-4-yl)oxy)cyclopentyl)-1H-pyrazol-3-yl)amino)-2,3-dihydrobenzo[d]isothiazole 1,1-dioxide]
0.01	0.486	Cc1n[nH]cc1O[C@@H]1CC[C@H](c2cc(Nc3ccc4c(c3F)CNS4(=O)=O)n[nH]2)C1 (relative stereo) [Example 79, cis-4-fluoro-5-((5-(3-((3-methyl-1H-pyrazol-4-yl)oxy)cyclopentyl)-1H-pyrazol-3-yl)amino)-2,3-dihydrobenzo[d]isothiazole 1,1-dioxide]
1.19	> 10	CC(C)N1CCN([C@H]2CC[C@@H](c3cc(Nc4ccc5c(c4F)CNS5(=O)=O)n[nH]3)C2)C1=O (relative stereo) [Example 81, cis-1-(3-(3-((4-fluoro-1,1-dioxido-2,3-dihydrobenzo[d]isothiazol-5-yl)amino)-1H-pyrazol-5-yl)cyclopentyl)-3-isopropylimidazolidin-2-one]
0.602	> 10	CC(C)N1CC(=O)N([C@H]2CC[C@@H](c3cc(Nc4ccc5c(c4F)CNS5(=O)=O)n[nH]3)C2)C1=O (relative stereo) [Example 82, cis-3-(3-(3-((4-fluoro-1,1-dioxido-2,3-dihydrobenzo[d]isothiazol-5-yl)amino)-1H-pyrazol-5-yl)cyclopentyl)-1-isopropylimidazolidine-2,4-dione]
0.71	> 10	CC(C)n1ccn([C@H]2CC[C@@H](c3cc(Nc4ccc5c(c4F)CNS5(=O)=O)n[nH]3)C2)c1=O (relative stereo) [Example 83, cis-1-(3-(3-((4-fluoro-1,1-dioxido-2,3-dihydrobenzo[d]isothiazol-5-yl)amino)-1H-pyrazol-5-yl)cyclopentyl)-3-isopropyl-1,3-dihydro-2H-imidazol-2-one]
0.031	0.289	CC1(C)CN([C@H]2CC[C@@H](c3cc(Nc4ccc5c(c4F)CNS5(=O)=O)n[nH]3)C2)C(=O)N1 (relative stereo) [Example 85, cis-1-(3-(3-((4-fluoro-1,1-dioxido-2,3-dihydrobenzo[d]isothiazol-5-yl)amino)-1H-pyrazol-5-yl)cyclopentyl)-4,4-dimethylimidazolidin-2-one]
0.073	1.34	CN1C(=O)N([C@H]2CC[C@@H](c3cc(Nc4ccc5c(c4F)CNS5(=O)=O)n[nH]3)C2)C(=O)C1(C)C (relative stereo) [Example 86, cis-3-(3-(3-((4-fluoro-1,1-dioxido-2,3-dihydrobenzo[d]isothiazol-5-yl)amino)-1H-pyrazol-5-yl)cyclopentyl)-1,5,5-trimethylimidazolidine-2,4-dione]
0.229	3.25	CC1(C)CC(=O)N([C@H]2CC[C@@H](c3cc(Nc4ccc5c(c4F)CNS5(=O)=O)n[nH]3)C2)C1=O (relative stereo) [Example 87, cis-1-(3-(3-((4-fluoro-1,1-dioxido-2,3-dihydrobenzo[d]isothiazol-5-yl)amino)-1H-pyrazol-5-yl)cyclopentyl)-3,3-dimethylpyrrolidine-2,5-dione]
0.0046	0.011	CC(C)(C)c1cnc([C@@H]2CC[C@H](c3cc(Nc4ccc5c(c4)CS(=O)(=O)N5)n[nH]3)C2)o1 (relative stereo) [Example 135, cis-5-((5-(3-(5-(tert-butyl)oxazol-2-yl)cyclopentyl)-1H-pyrazol-3-yl)amino)-1,3-dihydrobenzo[c]isothiazole 2,2-dioxide]
0.0033	0.011	CC(C)(C)c1cnc([C@@H]2CC[C@H](c3cc(Nc4ccc5c(c4F)CS(=O)(=O)N5)n[nH]3)C2)o1 (relative stereo) [Example 145, cis-5-((5-(3-(5-(tert-butyl)oxazol-2-yl)cyclopentyl)-1H-pyrazol-3-yl)amino)-4-fluoro-1,3-dihydrobenzo[c]isothiazole 2,2-dioxide]
